Converted amounts (≈) assume the structure as drawn.
System: HIV-1NL4-3-GFP-P2A-Nef
Experiment: ART and LASER ART drug cocktails at 5×EC90 in HIV-1 infected Jurkat T cell line
Assay type: cell-based
Conditions: for EC90: Human immunodeficiency virus 1, Jurkat, read-out: 5×EC90 values; for 5×EC90 values: concentration used in the cocktail, equal to 5×EC90
Procedure: FIGS. 6A-6C show the combined effect of ART and CRISPR/Cas9 on HIV-1 infection of Jurkat T cell line. FIG. 6A: Experimental design and procedure. Jurkat cells were infected with HIV-1NL4-3-GFP-P2A-Nef at multiplicity of infection (MOI) 0.001 and 0.01. […] At day 6 of infection the drugs were removed to allow efficient lentiviral transduction of Cas9 and gRNAs LTR A and LTR B which was conducted at day 7. At day 8 antiretrovirals were added back and continued for another 4 days. Twelve days after HIV-1 infection cells were collected, genomic DNA was extracted and analyzed by PCR for CRISPR-Cas9 mediated cleavage of viral LTR sequences. FIG. 6B: Quantification of the level of infection at day 7. Cells were fixed with 2% PFA and FACS analysis was performed to measure GFP expressing population for HIV infection/replication in vitro. FIG. 6C: Similar to FIG. 6B with exception that cells were treated with modified ART.
In vitro Infection: HEK-293T cells were transfected using CaPO4 precipitation method in the presence of chloroquine (50 μM) with 30 μg of pNL4-3-EGFP-P2A-Nef plasmid (13)/2.5×10^6 cells/100 mm dish. Next day, medium was replaced; and 24 h and 48 h later supernatants were collected, clarified at 3000 RPM for 10 minutes, filtered through 0.45 um filter, and concentrated by ultracentrifugation for 2 h with 20% sucrose cushion (25). Viral pellets were resuspended in HBSS by gentle agitation overnight, aliquoted, and tittered in Jurkat cells by FACS for GFP expression. Jurkat cells were infected by spinoculation for 1.5 h (26), 32° C. in 500 μl inoculum containing 8 μg/ml polybrene then resuspended and left for 4 h then 500 μl of growth medium was added. Next day, cells were washed 3 times with PBS and re-suspended in growth medium.

Row | Structure (SMILES) | EC90 | 5×EC90 values
1 | Nc1nc(NC2CC2)c2ncn([C@H]3C=C[C@@H](CO)C3)c2n1 [ABC, abacavir] | 8.3 µg/mL (≈ 29 µM) | –
2 | C[C@@H]1CCO[C@H]2Cn3cc(C(=O)NCc4ccc(F)cc4F)c(=O)c(O)c3C(=O)N12 [DTG, dolutegravir] | 0.0111 µg/mL (≈ 0.0265 µM) | –
3 | CCCCCCCCCCCCCC(=O)Oc1c2n(cc(C(=O)NCc3ccc(F)cc3F)c1=O)C[C@@H]1OCC[C@@H](C)N1C2=O [MDTG, myristoylated dolutegravir] | – | 0.0167 µg/mL
4 | Cc1cc(/C=C/C#N)cc(C)c1Nc1ccnc(Nc2ccc(C#N)cc2)n1 [RPV, rilpivirine] | 0.0033 µg/mL (≈ 0.00901 µM) | –
5 | CCCCCCCCCCCCCC(=O)OCC1C=CC(n2cnc3c(NC4CC4)nc(N)nc32)C1 (stereo not shown) [MABC, myristoylated abacavir] | – | 14.4 µg/mL
6 | Nc1ccn([C@@H]2CS[C@H](CO)O2)c(=O)n1 [3TC, lamivudine] | 17.2 µg/mL (≈ 75 µM) | –
7 | CCCCCCCCCCCCCC(=O)OCC1OC(n2ccc(N)nc2=O)CS1 (stereo not shown) [M3TC, myristoylated lamivudine] | – | 32.9 µg/mL
